{"source": "paper PMC12692968", "about": "“Design, Synthesis, Molecular Docking, and Anticancer Activity of Chalcone Derivatives as VEGFR-2 Inhibitors” (Molecules, 2025)", "key": {"[1]": {"system": "human renal epithelial cell line HK-2", "test": "CCK-8 cytotoxicity assay, HK-2 cells", "type": "cell-based", "conditions": "Homo sapiens, Epithelial cell; CCK-8, 48 h incubation, mean ± SD, n = 3", "protocol": "(§1) The cytotoxicity of synthesized compounds against HK-2 cells was also detected. […] The SiHa, K562, B16 and HK-2 cells were obtained from Wuhan Pricella Biotechnology Co., Ltd. (Wuhan, China). […] 2–5 × 10^3 cells were added to each well of a 96-well plate and incubated for 12 h, followed by the addition of the tested compounds. After incubation for 48 h, 10 μL of the CCK-8 solution was added to each well and incubated for another 2 h. The absorbance of each well was measured at 450 nm using an enzyme-linked immunosorbent assay (ELISA) reader. The experiments were replicated three times. The inhibition rate of cancer cells was calculated using the Formula (1). The half-maximal inhibitory concentration (IC50) value was calculated using GraphPad Prism 8.0 software."}, "[2]": {"test": "CCK-8 cytotoxicity assay, HK-2 cells", "type": "cell-based, human", "protocol": "as §1"}, "[3]": {"system": "mouse melanoma cell line B16", "test": "CCK-8 cytotoxicity assay, B16 cells", "type": "cell-based", "conditions": "CCK-8, 48 h incubation, mean ± SD, n = 3", "protocol": "(§2) The SiHa, K562, B16 and HK-2 cells were obtained from Wuhan Pricella Biotechnology Co., Ltd. (Wuhan, China). […] 2–5 × 10^3 cells were added to each well of a 96-well plate and incubated for 12 h, followed by the addition of the tested compounds. After incubation for 48 h, 10 μL of the CCK-8 solution was added to each well and incubated for another 2 h. The absorbance of each well was measured at 450 nm using an enzyme-linked immunosorbent assay (ELISA) reader. The experiments were replicated three times. The inhibition rate of cancer cells was calculated using the Formula (1). The half-maximal inhibitory concentration (IC50) value was calculated using GraphPad Prism 8.0 software."}, "[4]": {"system": "human chronic myeloid leukemia cell line K562", "test": "CCK-8 cytotoxicity assay, K562 cells", "type": "cell-based", "conditions": "CCK-8, 48 h incubation, mean ± SD, n = 3", "protocol": "as §2"}, "[5]": {"molecular_target": "T1, VEGFR-2 (KDR) protein kinase (Homo sapiens, UniProt P35968)", "T1 construct": "purchased BPS Biosciences, San Diego, CA, USA", "T1 sequence (P35968 20-1356)": "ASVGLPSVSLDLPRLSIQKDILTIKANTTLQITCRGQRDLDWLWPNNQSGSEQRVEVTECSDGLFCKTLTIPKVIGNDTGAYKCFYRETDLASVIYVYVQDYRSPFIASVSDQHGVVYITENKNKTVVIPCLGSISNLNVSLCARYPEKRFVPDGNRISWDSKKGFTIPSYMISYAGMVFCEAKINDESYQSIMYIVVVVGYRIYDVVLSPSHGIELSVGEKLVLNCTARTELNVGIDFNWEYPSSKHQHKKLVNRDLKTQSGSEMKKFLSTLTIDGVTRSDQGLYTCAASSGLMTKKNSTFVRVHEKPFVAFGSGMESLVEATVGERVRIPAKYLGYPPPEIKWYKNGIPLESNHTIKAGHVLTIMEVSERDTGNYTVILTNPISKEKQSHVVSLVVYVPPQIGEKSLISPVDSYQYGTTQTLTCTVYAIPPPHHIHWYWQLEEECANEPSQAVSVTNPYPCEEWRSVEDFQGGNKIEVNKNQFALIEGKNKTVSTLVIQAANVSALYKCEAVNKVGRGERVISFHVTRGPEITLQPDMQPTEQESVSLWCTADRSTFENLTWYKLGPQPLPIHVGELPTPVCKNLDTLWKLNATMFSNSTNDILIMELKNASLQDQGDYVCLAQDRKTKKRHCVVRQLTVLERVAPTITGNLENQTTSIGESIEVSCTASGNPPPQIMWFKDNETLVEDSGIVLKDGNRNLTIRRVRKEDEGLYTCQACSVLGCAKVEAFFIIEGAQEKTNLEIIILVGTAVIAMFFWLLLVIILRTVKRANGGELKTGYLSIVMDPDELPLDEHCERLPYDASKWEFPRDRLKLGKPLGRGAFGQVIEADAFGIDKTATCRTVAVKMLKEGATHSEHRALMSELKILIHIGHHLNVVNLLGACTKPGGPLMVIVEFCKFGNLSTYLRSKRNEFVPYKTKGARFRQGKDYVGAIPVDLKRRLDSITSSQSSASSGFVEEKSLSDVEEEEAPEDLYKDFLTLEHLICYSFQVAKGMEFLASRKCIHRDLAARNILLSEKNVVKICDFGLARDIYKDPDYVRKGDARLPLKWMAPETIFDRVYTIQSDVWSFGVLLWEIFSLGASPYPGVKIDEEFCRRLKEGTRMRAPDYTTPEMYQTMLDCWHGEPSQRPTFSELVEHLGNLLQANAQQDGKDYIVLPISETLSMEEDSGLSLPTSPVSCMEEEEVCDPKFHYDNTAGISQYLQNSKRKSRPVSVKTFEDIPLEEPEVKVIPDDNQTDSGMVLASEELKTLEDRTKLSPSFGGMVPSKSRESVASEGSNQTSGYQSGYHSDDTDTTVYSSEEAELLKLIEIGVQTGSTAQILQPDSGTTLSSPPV", "test": "VEGFR-2 (KDR) Kinase Assay Kit enzyme inhibition assay", "type": "biochemical", "conditions": "Kinase-Glo MAX, 30 °C 45 min, mean ± SD, n = 3", "protocol": "Many studies have shown that abnormal VEGFR-2 signaling could induce proliferation of cervical squamous cell carcinoma cells, myeloid leukemia cancer cells, and melanoma cells. […] A VEGFR-2 (KDR) Kinase Assay Kit (BPS Biosciences, San Diego, CA, USA) was used to conduct a VEGFR-2 inhibition assay following the manufacturer’s protocol. Briefly, kinase buffer and ATP and PTK substrate (Poly-Glu,Tyr 4:1) were diluted with distilled water to prepare a master mix solution. The master mix solution, test sample, and VEGFR-2 (KDR) protein kinase (2 ng/μL) were added to a 96-well plate and incubated at 30 °C for 45 min. After incubation, Kinase-Glo™ MAX (BPS Biosciences) reagent was added to each well, and incubated for 15 min at room temperature. Then it was immediately detected with an ELISA reader. The experiments were replicated three times."}, "[6]": {"system": "human cervical squamous cell carcinoma cell line SiHa", "test": "CCK-8 cytotoxicity assay, SiHa cells", "type": "cell-based", "conditions": "CCK-8, 48 h incubation, mean ± SD, n = 3", "protocol": "as §2"}, "K562 cells [7]": {"system": "K562 cells", "test": "Cell cycle analysis, PI staining, flow cytometry", "type": "cell-based, human", "conditions": "5 μM, 24 h", "protocol": "Cytotoxic compounds often inhibit cell proliferation by arresting the cell cycle at a specific phase.\nThe sample was then centrifuged (2000 rpm for 5 min), and the supernatant was aspirated. The fixed cells were resuspended in 0.5 mL of PI solution, cultured at 37 °C in the dark for 30 min, and then cultured at 4 °C in the dark for another 30 min Finally, the cell cycle sample was determined with a flow cytometer (Cytek Northern Light 3 laser 16V-14B-8R, Wuxi, China). The experiments were replicated three times."}, "K562 cells [8]": {"system": "K562 cells", "test": "Annexin V apoptosis assay by flow cytometry", "type": "cell-based, human", "text": "Enhancing apoptotic cell death is a crucial way for anticancer drugs to eliminate cancer cells.\nThe sample was centrifuged to isolate the cells and the kit instructions were followed for subsequent processing. Finally, apoptosis was quantified using a flow cytometer (Cytek Northern Light 3 Laser 16V-14B-8R, Wuxi, China). The experiments were replicated three times."}, "VEGFR-2": {"system": "VEGFR-2", "conditions": "reported chalcone VEGFR-2 inhibitors, Figure 1; cited from earlier work"}, "[9]": {"conditions": "K562, 1.25, 2.5 and 5.0 μM, 24 h"}}, "note": "Like-named read-outs stand apart in the source and are kept apart here.", "data": [{"smiles": "O=C(Nc1ccc(C(=O)/C=C/c2cc(F)cc(F)c2)cc1)Nc1ccc(Cl)c(C(F)(F)F)c1", "note": "[Compound 2l, (E)-1-(4-chloro-3-(trifluoromethyl)phenyl)-3-(4-(3-(3,5-difluorophenyl)acryloyl)phenyl)urea]", "values": [{"measurement": "IC50", "setting": "[1]", "value": "25.4 ± 1.47", "unit": "µM"}, {"measurement": "selectivity ratio at 48 h", "setting": "[2]; human (HK-2), mouse (B16), HK-2 cells versus B16 cells, HK-2 vs B16, read-out: selectivity toward B16, fold decrease in cytotoxicity against HK-2", "value": 18.2}, {"measurement": "selectivity ratio at 48 h", "setting": "[2]; human, HK-2 cells versus K562 cells, HK-2 vs K562, read-out: selectivity toward K562, fold decrease in cytotoxicity against HK-2", "value": 19.5}, {"measurement": "selectivity ratio at 48 h", "setting": "[2]; human, HK-2 cells versus SiHa cells, HK-2 vs SiHa, read-out: selectivity toward SiHa, fold decrease in cytotoxicity against HK-2", "value": 20.3}, {"measurement": "IC50", "setting": "[3]", "value": "1390 ± 210", "unit": "nM"}, {"measurement": "IC50", "setting": "[3]; Mus musculus, B16, 48 h", "value": "1250 to 1390", "unit": "nM"}, {"measurement": "IC50", "setting": "[4]", "value": "1300 ± 70", "unit": "nM"}, {"measurement": "IC50", "setting": "[4]; Homo sapiens, K562, 48 h", "value": "910 ± 70", "unit": "nM"}, {"measurement": "IC50", "setting": "[5]", "value": "420 ± 30", "unit": "nM"}, {"measurement": "IC50", "setting": "[6]", "value": "1250 ± 130", "unit": "nM"}, {"measurement": "IC50", "setting": "[6]; Homo sapiens, SiHa, 48 h", "value": "1250 to 1390", "unit": "nM"}, {"measurement": "percentage of K562 cells in the G2/M phase", "setting": "K562 cells [7]; DMSO 8.00%", "value": 3.05, "unit": "%"}, {"measurement": "percentage of K562 cells in the S phase", "setting": "K562 cells [7]; DMSO 43.34%", "value": 43.83, "unit": "%"}, {"measurement": "percentage of K562 cells in the G1 phase", "setting": "K562 cells [7]; DMSO 48.66%", "value": 53.12, "unit": "%"}, {"measurement": "viability at 1.25 µM", "setting": "K562 cells [8]; Homo sapiens, K562, 1.25 μM, plot in Figure 2, read-out: Q4 viable cells", "value": 92.8, "unit": "%"}, {"measurement": "viability at 2.5 µM", "setting": "K562 cells [8]; Homo sapiens, K562, 2.5 μM, plot in Figure 2, read-out: Q4 viable cells", "value": 90.5, "unit": "%"}, {"measurement": "viability at 5 µM", "setting": "K562 cells [8]; Homo sapiens, K562, 5.0 μM, plot in Figure 2, read-out: Q4 viable cells", "value": 38.8, "unit": "%"}, {"measurement": "early apoptosis", "setting": "K562 cells [8]; K562, 1.25 μM, 24 h", "value": 5.80, "unit": "%"}, {"measurement": "early apoptosis", "setting": "K562 cells [8]; K562, 2.5 μM, 24 h", "value": 8.34, "unit": "%"}, {"measurement": "early apoptosis", "setting": "K562 cells [8]; K562, 5.0 μM, 24 h", "value": 57.79, "unit": "%"}, {"measurement": "late apoptosis", "setting": "K562 cells [8]; [9]", "value": "increased in a dose-dependent manner"}, {"measurement": "necrosis of K562 cells", "setting": "K562 cells [8]; [9]", "value": "Almost no necrosis"}]}, {"smiles": "CNC(=O)c1cc(Oc2ccc(C(=O)/C=C/c3cc(OC)c(OC)c(OC)c3)cc2)ccn1", "note": "[II]", "values": [{"measurement": "IC50", "setting": "VEGFR-2", "value": 3200, "unit": "nM"}]}, {"smiles": "COc1cc(/C=C/C(=O)c2ccc(N3CCNCC3)cc2)ccc1F", "note": "[I]", "values": [{"measurement": "IC50", "setting": "VEGFR-2", "value": 570, "unit": "nM"}]}]}
